In publication PMC7570662, “In Vivo Pharmacokinetic Analysis Utilizing Non-Targeted and Targeted Mass Spectrometry and In Vitro Assay against Transient Receptor Potential Channels of Maobushisaishinto and Its Constituent Asiasari Radix” (Molecules, 2020):
Read-outs that look alike come from different tables or passages of the source.

Key:
human TRPM8 = molecular target: T1, human TRPM8 (Homo sapiens, UniProt Q7Z2W7); test: Ca2+ influx assay in TRPM8-expressing T-REx-293 cells; assay type: cell-based; conditions: 10 µmol/L test compound, relative to 20 µmol/L icilin; for activation at 10 µM: T-REx-293, read-out: % of Activation Compared to Positive Control against Each Subfamily of TRP Channel TRPM8
T1 construct: Each full-length human TRPA1, TRPV1, TRPV4, and TRPM8 coding regions were introduced into a pcDNA4/TO vector; expressed in transfected cells; host or cells: T-REx-293 cells (tetracycline-induced, pcDNA4/TO vector)
Experimental: (§1) Each full-length human TRPA1, TRPV1, TRPV4, and TRPM8 coding regions were introduced into a pcDNA4/TO vector (Thermo Fisher Scientific, Waltham, MA, USA) and transfected into T-REx-293 cells (Thermo Fisher Scientific) to obtain stable cell lines expressing human TRPA1, TRPV1, TRPV4, and TRPM8. Cells were cultured in DMEM with 10% FBS, 4 mmol/L L-glutamine, and penicillin/streptomycin.
(§2) Cells were suspended in medium with 1 µg/mL tetracycline and seeded in poly-D-lysine coated 96-well plate at 2.5 × 10^4 cells/well. After overnight culture, the cells were used for Ca^2+ influx assay.
(§3) The Ca^2+ influx assay was performed using a FLIPR Calcium 5 Assay Kit (Molecular Devices, Sunnyvale, CA, USA) according to previously reported methods with minor modifications. In brief, cells were incubated with 80 µL Ca^2+-chelating dye dissolved in assay buffer at pH 7.4 (Hanks’ Balanced Salt Solution containing 20 mmol/L of N-2-hydroxyethylpiperazine-N’-2-ethanesulfonic acid) at room temperature for 30 min. The plates were assayed using a FlexStation 3 Microplate Reader (Molecular Devices). The fluorescence intensity was traced entirely for 80 s. The baseline of fluorescence was measured for 20 s before adding 20 µL of test compound (final concentration, 10 µmol/L). The response was expressed as percentage activation using the relative fluorescence units (RFU) (% activation = 100 × ((RFUmax − RFUbaseline)/RFUbaseline) − 100). Furthermore, the activities of each test compound against several subfamilies of TRP channels were represented as the relative enhancement of Ca^2+ influx of each positive control, indicated as follows: 20 µmol/L of allyl isothiocyanate (an agonist of TRPA1), 2 µmol/L of capsaicin (an agonist of TRPV1), 4 µmol/L of GSK1016790A (an agonist of TRPV4), and 20 µmol/L of icilin (an agonist of TRPM8). The dose–response curve was fitted to the sigmoidal dose-response equation (top, the max response of each compound), and EC50 values were calculated using GraphPad Prism 7 software (GraphPad, San Diego, CA, USA).

human TRPV1 = molecular target: T2, human TRPV1 (Homo sapiens, UniProt Q8NER1); test: Ca2+ influx assay in TRPV1-expressing T-REx-293 cells; assay type: cell-based; conditions: 10 µmol/L test compound, relative to 2 µmol/L capsaicin; for activation at 10 µM: T-REx-293, read-out: % of Activation Compared to Positive Control against Each Subfamily of TRP Channel TRPV1
T2 construct: Each full-length human TRPA1, TRPV1, TRPV4, and TRPM8 coding regions were introduced into a pcDNA4/TO vector; expressed in transfected cells; host or cells: T-REx-293 cells (tetracycline-induced, pcDNA4/TO vector)
Experimental: as §1, §2, §3

[1] = Quantitative targeted LC-MS/MS pharmacokinetics of AR ingredients in rat plasma after oral MBST; assay type: in vivo
Experimental: Seven-week-old male Sprague-Dawley rats were purchased from Charles River Laboratories (Yokohama, Japan) and Japan SLC (Hamamatsu, Japan). The animals were housed under a temperature of 23 °C ± 3 °C and relative humidity of 50% ± 20%, with 12-h/12-h light/dark cycle and allowed free access to water and standard laboratory food (MF, Oriental Yeast Co., Ltd., Tokyo, Japan). The animals were used in experiments following habituation for several days.
Extract powders of AR or MBST were suspended in distilled water and orally administered to rats having fasted for approximately 16 h. The dose of AR was set at 2 g/kg, and the MBST doses were set at 1 and 2 g/kg. 1 g/kg MBST contained 578 µg/kg, 147 µg/kg, 226 µg/kg, 426 µg/kg asarinin, sesamin, methyl kakuol, and amide A, respectively. The doses were chosen based on a previous pharmacological study of MBST using rats.
Blood samples were centrifuged at 1700× g at 4 °C for 15 min to obtain plasma, of which samples were then stored at ≤−75 °C until analysis.
To quantify the plasma concentration of the AR components identified by the non-targeted analysis, the plasma samples at 0–24 h after MBST administration (1 or 2 g/kg) were supplied to targeted LC-MS/MS analysis in SRM mode with electrospray ionization.
For the quantification of methyl kakuol, amide A, asarinin, and sesamin in plasma, 100 µL of MBST-treated rat plasma was mixed with 20 µL of methanol (as the vehicle of the working solution described below) and 20 µL of internal standard niflumic acid (2 or 20 ng/mL). To prepare the calibration curve, the same volumes of blank plasma and various concentrations of working solution (final plasma concentration, 0.02–200 ng/mL) were used instead of the MBST-treated rat plasma and methanol. Finally, 500 µL of methanol was added for deproteinization. The mixture was centrifuged at 7000× g at 4 °C for 5 min. The supernatant was dried using a centrifugal evaporator. The dried residue was dissolved in 60 or 80 μL of the initial LC mobile phase which was composed of 5 mmol/L ammonium acetate in water/methanol (70/30, v/v), and then, a 5 or 10 μL aliquot was injected into the LC-MS/MS system. The injected sample was chromatographically separated using a YMC-Pack ODS-AQ column (2.0 ×150 mm I.D., 3-μm particle size; GL Sciences, Tokyo, Japan) at 30 °C. The mobile phase consisted of solution A (5 mmol/L ammonium acetate) as well as solution B (methanol), with a gradient of solution B (30%, 0 min; 70%, 25 min; 95%, 25.01–30 min; 30%, 30.01–35 min; v/v) at a flow rate of 0.3 mL/min. In brief, the compounds were analyzed using optimal MS/MS parameters as follows: methyl kakuol (m/z 209.056/176.1), amide A (m/z 248.174/57.1), asarinin (m/z 372.123/173.1), and sesamin (m/z 372.118/233.1). The calibration ranges for methyl kakuol, amide A, asarinin, and sesamin were 0.5–100 ng/mL, 0.5–200 ng/mL, 0.1–200 ng/mL, 0.1–200 ng/mL, respectively.
The AR ingredient levels in the plasma are presented as the mean + standard deviation. Pharmacokinetic parameters of plasma AR ingredients, such as the Cmax, AUC0-last, were calculated by non-compartmental analysis using the Phoenix WinNonlin software (Certara L.P., St. Louis, MO, USA). The concentration data were pooled per each time point; then, the mean concentration–time data were subjected to the non-compartmental analysis.

[2] = male, Sprague-Dawley, rat, in vivo, po, 1 g/kg
[3] = male, Sprague-Dawley, rat, in vivo, po, 2 g/kg

T1 sequence (Q7Z2W7 whole entry): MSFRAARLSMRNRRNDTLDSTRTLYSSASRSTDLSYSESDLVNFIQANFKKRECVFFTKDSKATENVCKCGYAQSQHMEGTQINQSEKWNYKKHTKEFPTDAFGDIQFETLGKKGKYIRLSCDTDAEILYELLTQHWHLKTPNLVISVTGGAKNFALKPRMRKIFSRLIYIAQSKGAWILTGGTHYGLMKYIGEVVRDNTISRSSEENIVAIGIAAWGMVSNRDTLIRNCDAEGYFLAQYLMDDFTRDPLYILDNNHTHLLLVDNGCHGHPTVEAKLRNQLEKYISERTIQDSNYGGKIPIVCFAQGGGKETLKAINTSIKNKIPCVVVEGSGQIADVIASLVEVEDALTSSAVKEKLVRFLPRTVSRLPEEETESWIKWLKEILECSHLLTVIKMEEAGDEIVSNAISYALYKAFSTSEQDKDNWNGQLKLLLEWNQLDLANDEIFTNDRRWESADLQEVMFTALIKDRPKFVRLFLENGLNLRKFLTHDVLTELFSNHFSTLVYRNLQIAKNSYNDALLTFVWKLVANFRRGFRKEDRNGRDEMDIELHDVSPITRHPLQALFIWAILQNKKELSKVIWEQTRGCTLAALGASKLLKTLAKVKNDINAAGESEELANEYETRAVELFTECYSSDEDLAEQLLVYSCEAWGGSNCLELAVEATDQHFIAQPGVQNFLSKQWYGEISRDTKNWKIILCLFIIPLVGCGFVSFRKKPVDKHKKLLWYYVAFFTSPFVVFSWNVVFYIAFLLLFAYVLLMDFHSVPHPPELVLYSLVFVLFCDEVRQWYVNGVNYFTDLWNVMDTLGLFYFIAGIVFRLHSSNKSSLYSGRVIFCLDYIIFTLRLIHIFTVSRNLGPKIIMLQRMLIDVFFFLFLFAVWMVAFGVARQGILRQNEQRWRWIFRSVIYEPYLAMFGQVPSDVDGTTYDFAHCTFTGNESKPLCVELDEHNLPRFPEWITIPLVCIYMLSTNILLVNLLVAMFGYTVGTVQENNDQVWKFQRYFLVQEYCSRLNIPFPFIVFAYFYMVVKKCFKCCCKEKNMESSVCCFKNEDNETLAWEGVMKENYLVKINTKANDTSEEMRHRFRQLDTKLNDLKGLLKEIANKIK
T2 sequence (Q8NER1 whole entry): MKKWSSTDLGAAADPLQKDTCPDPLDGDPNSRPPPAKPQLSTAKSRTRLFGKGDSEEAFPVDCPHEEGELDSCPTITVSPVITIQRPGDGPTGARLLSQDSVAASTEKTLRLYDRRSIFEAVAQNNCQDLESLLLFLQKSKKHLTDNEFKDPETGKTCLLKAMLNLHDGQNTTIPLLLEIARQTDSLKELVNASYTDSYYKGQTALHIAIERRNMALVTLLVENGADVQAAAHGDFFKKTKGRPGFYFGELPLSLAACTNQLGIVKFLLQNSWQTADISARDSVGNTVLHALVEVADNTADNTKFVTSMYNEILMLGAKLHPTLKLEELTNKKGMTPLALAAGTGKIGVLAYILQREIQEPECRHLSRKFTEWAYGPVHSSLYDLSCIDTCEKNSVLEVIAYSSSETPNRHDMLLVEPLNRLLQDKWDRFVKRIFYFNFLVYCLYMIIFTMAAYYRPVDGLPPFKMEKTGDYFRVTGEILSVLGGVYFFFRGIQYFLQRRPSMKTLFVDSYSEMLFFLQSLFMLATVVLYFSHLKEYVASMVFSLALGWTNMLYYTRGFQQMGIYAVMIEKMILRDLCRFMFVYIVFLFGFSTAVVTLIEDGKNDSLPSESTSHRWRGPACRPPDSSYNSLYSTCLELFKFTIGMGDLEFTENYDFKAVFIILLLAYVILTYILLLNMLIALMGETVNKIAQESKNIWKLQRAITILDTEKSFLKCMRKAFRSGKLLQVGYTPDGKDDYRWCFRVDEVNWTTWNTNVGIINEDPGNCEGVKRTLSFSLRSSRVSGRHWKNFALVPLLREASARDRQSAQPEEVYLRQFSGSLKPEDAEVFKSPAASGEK

SMILES	activation at 10 µM (human TRPM8)	activation at 10 µM (human TRPV1)	AUC(0-t) [1, 2]	Cmax [1, 2]	Tmax [1, 2]	half-life [1, 2]	k el [1, 2]	AUC(0-t) [1, 3]	Cmax [1, 3]	Tmax [1, 3]	half-life [1, 3]	k el [1, 3]	further results
C/C=C/C=C\CC/C=C/C=C/C(=O)NCC(C)C [Amide A, (2E,4E,8Z,10E)-N-isobutyl-2,4,8,10-dodecatetraenamide]	6.1%	0.7%	–	–	–	–	–	–	–	–	–	–	AUC(0-t) ([1]; male, Sprague-Dawley, rat plasma, oral MBST 1 g/kg, read-out: AUC0-last): 0.00487 µg·h/mL; Cmax ([1]; male, Sprague-Dawley, rat plasma, oral MBST 1 g/kg, read-out: Cmax): 4.08 ng/mL; k el ([1]; male, Sprague-Dawley, rat plasma, oral MBST 1 g/kg, read-out: kel (converted)): 0.000211 s⁻¹; half-life ([1]; male, Sprague-Dawley, rat plasma, oral MBST 1 g/kg, read-out: t1/2 (converted)): 54.7 min; Tmax ([1]; male, Sprague-Dawley, rat plasma, oral MBST 1 g/kg, read-out: tmax): 30 min; AUC(0-t) ([1]; male, Sprague-Dawley, rat plasma, oral MBST 2 g/kg, read-out: AUC0-last): 0.0184 µg·h/mL; Cmax ([1]; male, Sprague-Dawley, rat plasma, oral MBST 2 g/kg, read-out: Cmax): 6.07 ng/mL; k el ([1]; male, Sprague-Dawley, rat plasma, oral MBST 2 g/kg, read-out: kel (converted)): 6.58e-05 s⁻¹; half-life ([1]; male, Sprague-Dawley, rat plasma, oral MBST 2 g/kg, read-out: t1/2 (converted)): 175 min; Tmax ([1]; male, Sprague-Dawley, rat plasma, oral MBST 2 g/kg, read-out: tmax): 15 min
c1cc2c(cc1[C@H]1OC[C@H]3[C@@H]1CO[C@H]3c1ccc3c(c1)OCO3)OCO2 [Asarinin, (−)-Asarinin]	1.4%	-0.4%	0.0163 µg·h/mL	8.42 ng/mL	15 min	91.2 min	0.000127 s⁻¹	0.0386 µg·h/mL	14.7 ng/mL	15 min	176 min	6.58e-05 s⁻¹	–
CCC(=O)c1cc2c(cc1OC)OCO2 [Methyl kakuol]	–	–	–	–	–	–	–	–	–	–	–	–	% of Activation Compared to Positive Control against Each Subfamily of TRP Channel TRPM8 (human TRPM8): 2.8%; % of Activation Compared to Positive Control against Each Subfamily of TRP Channel TRPV1 (human TRPV1): 0.1%; AUC0-last ([1]; rat plasma, oral MBST 1 g/kg): 0.0225 µg·h/mL; Cmax ([1]; rat plasma, oral MBST 1 g/kg): 26.7 ng/mL; Tmax ([1]; rat plasma, oral MBST 1 g/kg): 30 min; k el ([1]; rat plasma, oral MBST 1 g/kg): 0.000425 s⁻¹; t1/2 ([1]; rat plasma, oral MBST 1 g/kg): 27.1 min; AUC0-last ([1]; rat plasma, oral MBST 2 g/kg): 0.214 µg·h/mL; Cmax ([1]; rat plasma, oral MBST 2 g/kg): 98.2 ng/mL; Tmax ([1]; rat plasma, oral MBST 2 g/kg): 60 min; k el ([1]; rat plasma, oral MBST 2 g/kg): 0.000153 s⁻¹; t1/2 ([1]; rat plasma, oral MBST 2 g/kg): 75.6 min
c1cc2c(cc1[C@H]1OC[C@H]3[C@@H]1CO[C@@H]3c1ccc3c(c1)OCO3)OCO2 [Sesamin]	-0.8%	-0.1%	0.0119 µg·h/mL	5.63 ng/mL	30 min	97.8 min	0.000118 s⁻¹	0.0287 µg·h/mL	9.44 ng/mL	15 min	179 min	6.44e-05 s⁻¹	–
